# Assay results published in US6881553B2 (priority 1999, dated 2005).
# Several values for one entry are separate records, joined by “and”; a condition that tells them apart may be missing. Equal values may be shown once. Entries after “also recorded” stand apart in the source; their conditions may differ. Read-outs that look alike come from different tables or passages of the source.
# What was measured:
# [1] = tested on: L. pneumophila Philadelphia 1; format: cell-based, Legionella pneumophila; details: disks 2.5 mg or 1.0 mg, BCYE plates, four days
# [2] = tested on: L. pneumophila F4b; format: cell-based, Legionella pneumophila; details: disks 2.5 mg or 1.0 mg, BCYE plates, four days
# [3] = tested on: L. pneumophila Philadelphia 1; assay: microbe, parasite or virus in culture; format: cell-based, Legionella pneumophila; details: for inhibition of 14C-acetate incorporation: 0.5 mM
# [4] = tested on: L. pneumophila lysates; format: biochemical, Legionella pneumophila; details: for inhibition of 14C-acetate incorporation, lysates compared with whole cells: 0.4 mM or 2.0 mM
# [5] = tested on: L. pneumophila Philadelphia 1; assay: microbe, parasite or virus in culture; format: cell-based, Legionella pneumophila; details: for MIC90: Legionella pneumophila, 48 h, read-out: MIC which inhibited 90% of L. pneumophila growth (MIC90)
# [6] = biological target: M. tuberculosis InhA enoyl reductase (Mycobacterium tuberculosis, UniProt P9WGR1); assay: biochemical
# M. tuberculosis InhA enoyl reductase, sequence (P9WGR1 whole entry, looked up): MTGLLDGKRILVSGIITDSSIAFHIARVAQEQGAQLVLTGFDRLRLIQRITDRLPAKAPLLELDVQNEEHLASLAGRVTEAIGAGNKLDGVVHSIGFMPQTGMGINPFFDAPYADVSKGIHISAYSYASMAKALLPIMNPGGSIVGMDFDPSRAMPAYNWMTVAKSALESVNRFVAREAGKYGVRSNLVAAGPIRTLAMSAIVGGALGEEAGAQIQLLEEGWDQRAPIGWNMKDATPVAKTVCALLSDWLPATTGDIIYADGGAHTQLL
# [7] = biological target: L. pneumophila FabX enoyl reductase (His-tagged FabX); format: biochemical; details: competitive with regard to DCA (dodecenoyl-CoA) substrate; 100 μM NADH, 100 mM NaPO4 pH 7.4; value (+/- spread)
# [8] = biological target: L. pneumophila FabT enoyl reductase (His-tagged FabT) (Legionella pneumophila, UniProt Q5ZUE4); assay: biochemical
# L. pneumophila FabT enoyl reductase (His-tagged FabT), sequence (Q5ZUE4 1-268): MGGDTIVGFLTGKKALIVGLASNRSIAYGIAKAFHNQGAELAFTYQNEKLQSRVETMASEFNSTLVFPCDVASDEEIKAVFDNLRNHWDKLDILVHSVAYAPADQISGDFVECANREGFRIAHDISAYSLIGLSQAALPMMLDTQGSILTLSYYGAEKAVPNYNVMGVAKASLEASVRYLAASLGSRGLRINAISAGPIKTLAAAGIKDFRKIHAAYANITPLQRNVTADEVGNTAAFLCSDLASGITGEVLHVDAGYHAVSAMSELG
# [9] = tested on: L. pneumophila in human monocyte-derived macrophages; format: cell-based, Legionella pneumophila
# [10] = tested on: L. pneumophila FabX; format: biochemical, Legionella pneumophila; details: dodecenoyl-CoA substrate, 100 μM NADH, pH 7.4
# [11] = tested on: L. pneumophila FabT; format: biochemical, Legionella pneumophila; details: dodecenoyl-CoA substrate, 100 μM NADH, pH 7.4
# [12] = biological target: M. tuberculosis InhA (Mycobacterium tuberculosis, UniProt P9WGR1); details: pH 7.4
# M. tuberculosis InhA, sequence (P9WGR1 whole entry, looked up): as the sequence (P9WGR1 whole entry, looked up) above
# [13] = tested on: M. tuberculosis strains; assay: M. tuberculosis 7H9 broth assay; format: cell-based, Mycobacterium tuberculosis; details: 21 days, turbidity
# [14] = tested on: Nocardia sp.; format: cell-based
# [15] = tested on: L. pneumophila F4b; assay: microbe, parasite or virus in culture; format: cell-based; details: Legionella pneumophila, read-out: concentration giving 50% inhibition of 14C-acetate incorporation
# [16] = tested on: Saccharomyces cerevisiae; assay: Zone of inhibition assay on SAB medium
# [17] = tested on: J774 cells; details: treatment of J774 cells with GFZ; cited from earlier work
# [18] = tested on: Candida albicans; assay: Zone of inhibition assay on SAB medium
# [19] = tested on: L. pneumophila; format: cell-based, Legionella pneumophila; details: GFZ 30 μg/ml, three days on CYE agar
# [20] = tested on: atypical mycobacteria; assay: Zone of inhibition assay; format: cell-based; details: standard laboratory media
# [21] = tested on: Legionella sp. strains; format: cell-based
# [22] = tested on: M. tuberculosis strains; assay: M. tuberculosis susceptibility assay on Middlebrook agar; format: cell-based, Mycobacterium tuberculosis; details: 27 strains, OADC Middlebrook agar, three weeks 37° C.
# [23] = tested on: bacterial species; format: cell-based
# [24] = tested on: HL-60 cells
# [25] = tested on: Pseudomonas aeruginosa; format: cell-based
# [26] = mouse, in vivo; cited from earlier work
# [27] = tested on: Listeria monocytogenes in mouse J774 macrophage-like cells; details: GFZ in combination with norfloxacin; cited from earlier work
# [28] = Solubility observations in media; format: physicochemical; details: aqueous medium
# [29] = tested on: L. pneumophila in PMA-differentiated HL-60 cells; format: cell-based, Legionella pneumophila
# [30] = tested on: L. pneumophila; details: cited from earlier work
# [31] = tested on: L. pneumophila; details: cited from earlier work; remark: listed apart in the source
compound,measurement,setting,value
"O=C(O)CCc1ccc(O)cc1 [Analog 4-HPA, 4-hydroxyphenylpropionic acid]",antibacterial activity by zone of inhibition,[1],equally inhibitory
same,antibacterial activity by zone of inhibition,[2],equally inhibitory
"C/C=C/C/C=C/CCC(=O)[C@H]1O[C@H]1C(N)=O [Cerulenin, cerulenin]",inhibition of 14C-acetate incorporation relative to GFZ at 100 μg/ml,[3]; 100 μg/ml (0.45 mM),slightly better inhibitor
same,"inhibition of 14C-acetate incorporation, lysates compared with whole cells",[4],less effective inhibitor
CC(C)(Oc1ccc(CCNC(=O)c2ccc(Cl)cc2)cc1)C(=O)O [bezafibrate],MIC90,[5],250 µg/mL
"O=C(O)CCc1ccc(O)c(O)c1 [3,4-HPA, 3,4-dihydroxyphenyl propionic acid]",antibacterial activity by zone of inhibition,[1],equally inhibitory
same,antibacterial activity by zone of inhibition,[2],equally inhibitory
Cc1ccc(C)c(OCCCC(C)(C)C(=O)SCCNC(=O)CCNC(=O)[C@H](O)C(C)(C)COP(=O)(O)OP(=O)(O)OC[C@H]2O[C@@H](n3cnc4c(N)ncnc43)[C@H](O)[C@@H]2OP(=O)(O)O)c1 [GFZ],Ki,[6],210 µM
same,Ki,[7],122 µM
same,Ki,[8],127 µM
CCOC(=O)C(C)(C)Oc1ccc(Cl)cc1 [clofibrate],MIC which inhibited 90% of L. pneumophila growth (MIC90),"[5]; AYE broth, 48 hrs at 37° C.",100 µg/mL
same,effectiveness at inhibiting intracellular growth relative to GFZ,[9],much less effective than GFZ
same,intracellular growth of L. pneumophila in human macrophages,[9]; 1 mM,able to slow L. pneumophila growth
same,inhibition of 14C-acetate incorporation,[3],some efficacy
Cc1ccc(C)c(OCCCC(C)(C)C(=O)SCCNC(=O)CCNC(=O)[C@H](O)C(C)(C)COP(=O)(O)OP(=O)(O)OC[C@H]2O[C@@H](n3cnc4c(N)ncnc43)[C@H](O)[C@@H]2OP(=O)(O)O)c1 [GFZ-CoA],mode of inhibition of enoyl reductase activity,[10],competitive inhibitor
same,mode of inhibition of enoyl reductase activity,[11],competitive inhibitor
same,mode of inhibition of enoyl reductase activity,[12],competitive inhibitor
O=C(O)c1ccccc1O [2-hydroxybenzoic acid],antibacterial activity by zone of inhibition,[1],more sensitive to 2-hydroxybenzoic acid (salicylic acid) than GFZ
same,inhibition of 14C-acetate incorporation,[3],some efficacy
same,antibacterial activity by zone of inhibition,[2],more sensitive to 2-hydroxybenzoic acid (salicylic acid) than GFZ
"Nc1ccc(C(=O)O)c(O)c1 [P-aminosalicyclic acid, para-aminosalicylate]",inhibition of 14C-acetate incorporation,[3],some efficacy
"Cc1ccc(C)c(OCCCC(C)(C)C(=O)O)c1 [GFZ, gemfibrozil]",growth of M. tuberculosis strains in 7H9 broth,[13],inhibits the growth
same,zone of inhibition,[14],40-60 mm
same,IC50,[15],100 µg/mL and 400 µM
same,susceptibility,[16]; SAB medium buffered to pH 7,susceptible
same,zone of inhibition,[16]; unbuffered medium,No zone of inhibition
same,bacteriostatic or bacteriocidal effect,"[5]; 10-200 μg/ml, aliquots of MIC cultures plated on CYE",bacteriostatic
same,MIC90,[5],10 µg/mL
same,increase of intracellular concentration of norfloxacin,[17],fourfold
same,susceptibility,[18]; SAB medium buffered to pH 7,susceptible
same,zone of inhibition,[18]; unbuffered medium,No zone of inhibition
same,change in amount of 3-HB-propyl ester,[19],fifty-fold increase
same,intracellular growth of L. pneumophila in human macrophages,[9]; 0.4 mM (100 μg/ml),inhibited the intracellular growth
same,intracellular growth of L. pneumophila in human macrophages,[9]; 0.6 mM compared with 0.4 mM,no further reduction in L. pneumophila colonies
same,susceptibility,[20],resistant
same,sensitivity of Legionella sp. strains (zone of inhibition),[21],All 39 Legionella sp. strains were sensitive
same,IC50,"[3]; Legionella pneumophila, 0.25 h, read-out: concentration giving fifty percent inhibition of 14C-acetate incorporation",25 µg/mL
same,IC50,"[3]; Legionella pneumophila, 1 h, read-out: concentration giving 50% inhibition of 14C-acetate incorporation",10 µg/mL and 40 µM
same,IC50,"[3]; Legionella pneumophila, read-out: concentration giving 50% inhibition of 14C-acetate incorporation",100 µM and 25 µg/mL
same,inhibition at 400 µM,"[3]; Legionella pneumophila, read-out: inhibition of 14C-acetate incorporation into TCA precipitable material in whole cells",> 90%
same,lowest concentration that inhibited 14C-acetate incorporation,[3]; within 15 minutes,10 µg/mL
same,concentration that completely inhibited growth of all M. tuberculosis strains,[22],100 to 200 µg/mL
same,sensitivity of nonpathogenic bacterial strains,[23],four of the eight strains tested demonstrated sensitivity
same,share of bacterial species tested that demonstrated susceptibility,[23],33%
same,viability of uninfected HL-60 cells,[24],did not affect the viability
same,protection of infected HL-60 cells from L. pneumophila cytolytic effects,"[24]; 100 μg/ml, infection multiplicity of 0.1 bacteria/cell, 5 days",protected infected HL-60 cells
same,inhibition of 14C-acetate incorporation into TCA precipitable material in a lysate,[4]; 0.4 mM,15%
same,"inhibition of 14C-acetate incorporation, lysates compared with whole cells",[4],not as effective an inhibitor in these lysates as it was in whole cells
same,"inhibition of 14C-acetate incorporation in lysate, comparison between inhibitors",[4]; 2 mM,not as potent as cerulenin in lysates
same,growth inhibition,[25],did not inhibit the growth
same,LD50,[26],250 mg/20 gm mouse per day
same,reduction of the norfloxacin concentration required to block intracellular growth,[27],fourfold
same,solubility in relation to pH,[28],insoluble at an acid pH; also recorded: decreases as pH decreases
same,L. pneumophila intracellular growth,[29]; GFZ 0.4 mM (100 μg/ml),inhibition of L. pneumophila intracellular growth
same,concentration required to inhibit intracellular growth within macrophages,[29]; macrophages,100 µg/mL
same,time after infection at which inhibition of bacterial growth was seen,"[29]; single-round growth assay with gentamicin, GFZ 0.4 mM (100 μg/ml)",≤ 8 h
CO[C@H]1/C=C/O[C@@]2(C)Oc3c(C)c(O)c4c(O)c(c(/C=N/N5CCN(C)CC5)c(O)c4c3C2=O)NC(=O)/C(C)=C\C=C\[C@H](C)[C@H](O)[C@@H](C)[C@@H](O)[C@@H](C)[C@H](OC(C)=O)[C@@H]1C [rifampin],concentration inhibiting extracellular growth,[30],0.002 µg/mL
same,concentration inhibiting intracellular growth,[31],0.1 µg/mL
CC[C@H]1OC(=O)[C@H](C)[C@@H](O[C@H]2C[C@@](C)(OC)[C@@H](O)[C@H](C)O2)[C@H](C)[C@@H](O[C@@H]2O[C@H](C)C[C@H](N(C)C)[C@H]2O)[C@](C)(O)C[C@@H](C)C(=O)[C@H](C)[C@@H](O)[C@]1(C)O [erythromycin],concentration inhibiting extracellular growth,[30],0.2 µg/mL
